# Structures can show the parent of a compound that is named as a salt. Where two headings read alike, the source gives them in different places.
# How the values were obtained:
# [1] = test system: A549-mRuby cells; experiment: Drug screening: effect on cell growth (cell number day 4 / day 0); conditions: 10 μM drug; for Growth_1: number of cells at day 4 divided by number of cells at day 0 / toxic_1: repeat #1; for Growth_2: number of cells at day 4 divided by number of cells at day 0 / toxic_2: repeat #2
# Procedure: A549-mRuby cells were seeded (3,000 cells per well) in nine 384-well plates using Multidrop combi. Cells were seeded in a final volume of 30 μl with DMEM+10% BCS. The following day, 20 μl of OC43 were added (MOI 0.3) and incubated at 33° C., 5% CO2 for 1 hour. 50 nl from the Selleck FDA-approved drug library (cat #L1300, Selleck) were added (1:1,000 dilution). Two columns (32 wells) were left uninfected and two columns were treated with DMSO and virus (no drug control). Cells were imaged using the IncuCyte S3 to measure cell numbers at day 0. Cells were incubated for 4 days at 33° C., 5% CO2 and were stained for OC43 nucleoprotein. All the following steps were performed at room temperature. […] The screen was performed twice.
# (§1) The following parameters were extracted from the images: number of cells at day 0, number of cells at day 4 and total OC43 staining intensity at day 4. For analysis, OC43 staining intensity was normalized to the number of cells in the well and further normalized to the mean of the no drug controls, which was set to 100. […] For each plate, a drug was considered as a putative hit if it reduced OC43 staining by over 3 standard deviations from the mean of the no drug controls. Drugs were considered hits if they were not toxic and reduced OC43 staining by over 3 standard deviations in both repeats.
# (§2) A library of 1,900 clinically used drugs was screened, the drugs either approved for human use or having extensive safety data in humans (Phase 2 or 3 clinical trials), for their ability to inhibit OC43 infection of the human lung epithelial cell line A549 (expressing an H2B-mRuby nuclear reporter). One day after plating, cells were infected at an MOI of 0.3, incubated at 33° C. for 1 hour and drugs were added to a final concentration of 10 μM. Cells were then incubated at 33° C. for 4 days, fixed and stained for the presence of the viral nucleoprotein. The cells were imaged at day 0 (following drug addition) and day 4 (after staining) to determine the drugs effect on cell growth and OC43 infection.
# [2] = test system: OC43; experiment: Drug screening: OC43 nucleoprotein staining in infected A549-mRuby cells; type: cell-based, human beta coronavirus OC43; conditions: for activity at 10 µM: Betacoronavirus 1, OC43, 96 h
# Procedure: A549-mRuby cells were seeded (3,000 cells per well) in nine 384-well plates using Multidrop combi. Cells were seeded in a final volume of 30 μl with DMEM+10% BCS. The following day, 20 μl of OC43 were added (MOI 0.3) and incubated at 33° C., 5% CO2 for 1 hour. 50 nl from the Selleck FDA-approved drug library (cat #L1300, Selleck) were added (1:1,000 dilution). Two columns (32 wells) were left uninfected and two columns were treated with DMSO and virus (no drug control). Cells were imaged using the IncuCyte S3 to measure cell numbers at day 0. Cells were incubated for 4 days at 33° C., 5% CO2 and were stained for OC43 nucleoprotein. All the following steps were performed at room temperature. Cells were fixed in 50 μl 4% PFA/PBS for 15 min, blocked with 50 μl 10% BSA+0.5% Triton X-100 in PBS for 30 minutes, stained with 50 μl anti-OC43 (cat #MAB9013, Milipore) diluted 1:2,000 in 2% BSA+0.1% Triton X-100 in PBS for 1 hour, washed with 50 μl PBS three times, stained with anti-mouse-AlexaFluor488 diluted 1:1,000 in 2% BSA+0.1% Triton X-100 in PBS for 1 hour, washed with 50 μl PBS three times and imaged on the IncuCyte S3 (day 4). The screen was performed twice.
# as §1, §2
# [3] = 10 μM drug, MOI 0.3, 4 days, normalized to no-drug controls in the same plate, repeat #1, read-out: OC43_1: % staining of OC43 in screen repeat #1
# [4] = 10 μM drug, MOI 0.3, 4 days, normalized to no-drug controls in the same plate, repeat #2, read-out: OC43_2: % staining of OC43 in screen repeat #2
# [5] = 10 μM drug, MOI 0.3, 4 days, OC43 staining normalized to no-drug controls, mean of the two screen repeats, read-out: OC43_mean
Compound,Growth_1: number of cells at day 4 divided by number of cells at day 0 [1],toxic_1 [1],Growth_2: number of cells at day 4 divided by number of cells at day 0 [1],toxic_2 [1],"hit_1 ([2]; 10 μM drug, repeat #1)","hit_2 ([2]; 10 μM drug, repeat #2)","activity at 10 µM [2, 3] [%]","activity at 10 µM [2, 4] [%]",activity at 10 µM ([2]; read-out: OC43_mean) [%],"activity at 10 µM [2, 5] [%]",activity at 10 µM ([2]; read-out: OC43_1: % staining of OC43 in screen repeat #1) [%],activity at 10 µM ([2]; read-out: OC43_2: % staining of OC43 in screen repeat #2) [%]
CN(C)CCCC1(c2ccc(F)cc2)OCc2cc(C#N)ccc21 (stereo not drawn) [Citalopram HBr],5.1,0,5.1,0,1,1,20.4,44.4,32.4,,,
CN(C)CCCN1c2ccccc2CCc2ccc(Cl)cc21.O [Clomipramine HCl],2.6,0,3.8,0,1,1,13.9,21.6,17.7,,,
CN1CCN(C2=Nc3cc(Cl)ccc3Nc3ccccc32)CC1 [Clozapine],4.6,0,4.3,0,1,1,15.8,46.9,,31.3,,
"CC(C)c1nc(CN(C)C(=O)N[C@@H](CCN2CCOCC2)C(=O)N[C@H](CC[C@H](Cc2ccccc2)NC(=O)OCc2cncs2)Cc2ccccc2)cs1 [Cobicistat (GS-9350), Cobicistat]",4.9,0,5.3,0,1,1,23,20.7,,21.8,,
CN(C)CCC=C1c2ccccc2C=Cc2ccccc21 [Cyclobenzaprine HCl],3.3,0,2.1,0,1,1,45.2,47.7,,46.5,,
CN1CCC(=C2c3ccccc3C=Cc3ccccc32)CC1 [Cyproheptadine HCl],3.8,0,3.0,0,1,1,22.8,31.2,,27,,
"CC(C)(C)c1nc(-c2cccc(NS(=O)(=O)c3c(F)cccc3F)c2F)c(-c2ccnc(N)n2)s1 [Dabrafenib (GSK2118436), Dabrafenib]",3.9,0,5.5,0,1,1,36.3,47,,41.6,,
CN[C@H]1C(=O)N[C@@H]2Cc3ccc(cc3)Oc3cc4cc(c3O[C@@H]3O[C@H](C(=O)O)[C@@H](O)[C@H](O)[C@H]3NC(=O)CCCCCCCCC(C)C)Oc3ccc(cc3Cl)[C@@H](O)[C@@H]3NC(=O)[C@H](NC(=O)[C@@H]4NC(=O)[C@@H](NC2=O)c2cc(cc(O)c2Cl)Oc2cc1ccc2O)c1ccc(O)c(c1)-c1c(O[C@H]2O[C@H](CO)[C@@H](O)[C@H](O)[C@@H]2O)cc(O)cc1[C@@H](C(=O)NCCCN(C)C)NC3=O [Dalbavancin],5.8,0,6.2,0,1,1,,,32.5,,25.7,39.2
NC(=O)C(c1ccccc1)(c1ccccc1)[C@@H]1CCN(CCc2ccc3c(c2)CCO3)C1 [Darifenacin HBr],5.2,0,3.4,0,1,1,14.6,34.8,,24.7,,

# Source: patent US20230285405A1, “Pharmaceuticals for Treating or Preventing Nidoviruses and Picornaviruses” (priority 2020, published 2023)
